In US20170355708A1, “POTASSIUM CHANNEL MODULATORS” (Cadent Therapeutics, Inc., priority 2016, published 2017):

These compounds were tested against T1, hSK2 channels (Homo sapiens, UniProt P0DP23+Q9H2S1) (assay: Whole-cell patch-clamp recording of SK2 channel current (SC100)). Conditions: Stimulating Concentration required for increasing the baseline current by 100%; HEK293 cells expressing hSK2; Table 3.
T1 construct: expressed in transfected cells; host or cells: HEK293
Type: cell-based
Procedure: The biological activity of certain compounds were determined as follows. The ionic current through small-conductance Ca^2+-activated K^+ channels (SK channels, subtype 2) is recorded using the whole-cell configuration of the patch-clamp technique in a classic patch-clamp set-up using HEK293 tissue culture cells expressing hSK2 channels as described in Kasumu et. al., Chemistry & Biology 19, 1340-1353, Oct. 26, 2012.
The SC100 value determined is defined as the Stimulating Concentration required for increasing the baseline current by 100%.

Question: How did the “SC100 uM” value turn out when `CC(=O)N1CCN(c2cc(-n3nc(C)cc3C)nc(Nc3ccc(F)c(F)c3)n2)CC1` [Compound 101, 1-(4-(2-((3,4-difluorophenyl)amino)-6-(3,5-dimethyl-1H-pyrazol-1-yl)pyrimidin-4-yl)piperazin-1-yl)ethan-1-one] was run?
Answer: +++ (+++ means <200 nM)

Question: Which “SC100 uM” value does the source give for `OCc1ccn(-c2nc(Nc3ccc(F)cc3)cc(N3CCOCC3)n2)n1` [Compound 156, (1-(4-((4-fluorophenyl)amino)-6-morpholinopyrimidin-2-yl)-1H-pyrazol-3-yl)methanol] here?
Answer: + (+ means >1 uM)

Question: For `Cc1cc(C)n(-c2cc(N3CCNC(C(N)=O)C3)nc(Nc3ccc(F)cc3F)n2)n1` (stereo not shown) [Compound 110, 4-(2-((2,4-difluorophenyl)amino)-6-(3,5-dimethyl-1H-pyrazol-1-yl)pyrimidin-4-yl)piperazine-2-carboxamide], which “SC100 uM” value is on record?
Answer: ++ (++ means 200 nM-1000 nM)

Question: For `CC(=O)NCc1cc(Nc2ccc(F)cc2)nc(-n2cc(C)c(CF)n2)c1` [Compound 161, N-((2-(3-(fluoromethyl)-4-methyl-1H-pyrazol-1-yl)-6-((4-fluorophenyl)amino)pyridin-4-yl)methyl)acetamide], which “SC100 uM” value is on record?
Answer: +++ (+++ means <200 nM)

Question: How did the “SC100 uM” value turn out when `Cc1cc(Nc2ccc(Cl)c(C(F)(F)F)c2)nc(-n2ccc(C)n2)n1` [Compound 136, N-(4-chloro-3-(trifluoromethyl)phenyl)-6-methyl-2-(3-methyl-1H-pyrazol-1-yl)pyrimidin-4-amine] was run?
Answer: +++ (+++ means <200 nM)

Question: How did the “SC100 uM” value turn out when `Cc1cc(C)n(-c2cc(NC(C)C(N)=O)nc(Nc3ccc(F)c(F)c3)n2)n1` (stereo not shown) [Compound 113, 2-((2-((3,4-difluorophenyl)amino)-6-(3,5-dimethyl-1H-pyrazol-1-yl)pyrimidin-4-yl)amino)propanamide] was run?
Answer: ++ (++ means 200 nM-1000 nM)

Question: `Cc1cc(C)n(-c2nc(Nc3ccc(Cl)cc3)nc3c2ncn3CCN)n1` [Compound 133, 9-(2-aminoethyl)-N-(4-chlorophenyl)-6-(3,5-dimethyl-1H-pyrazol-1-yl)-9H-purin-2-amine] was tested. Which “SC100 uM” value did it give?
Answer: + (+ means >1 uM)

Question: With `Cc1cc(C)n(-c2cc(N3C[C@@H]4C[C@H]3CN4)nc(Nc3ccc(F)c(F)c3)n2)n1` (stereo in doubt) [Compound 109, 4-((1S,4S)-2,5-diazabicyclo[2.2.1]heptan-2-yl)-N-(3,4-difluorophenyl)-6-(3,5-dimethyl-1H-pyrazol-1-yl)pyrimidin-2-amine] as the compound, how does the “SC100 uM” value read?
Answer: ++ (++ means 200 nM-1000 nM)

Question: `CC(=O)NCc1cc(Nc2ccc(F)cc2)nc(-n2ccc(CF)n2)c1` [Compound 159, N-((2-(3-(fluoromethyl)-1H-pyrazol-1-yl)-6-((4-fluorophenyl)amino)pyridin-4-yl)methyl)acetamide] was tested. Which “SC100 uM” value did it give?
Answer: +++ (+++ means <200 nM)

Question: With `CC(=O)NCc1cc(Nc2ccc(F)cc2)nc(-n2ccc(C(F)F)n2)c1` [Compound 160, N-((2-(3-(difluoromethyl)-1H-pyrazol-1-yl)-6-((4-fluorophenyl)amino)pyridin-4-yl)methyl)acetamide] as the compound, how does the “SC100 uM” value read?
Answer: + (+ means >1 uM)

Question: Which “SC100 uM” value does the source give for `Cc1cc(C)n(-c2nc(Nc3ccc(F)c(F)c3)cc(NC(C)C(N)=O)n2)n1` (stereo not shown) [Compound 126, 2-((6-((3,4-difluorophenyl)amino)-2-(3,5-dimethyl-1H-pyrazol-1-yl)pyrimidin-4-yl)amino)propanamide] here?
Answer: ++ (++ means 200 nM-1000 nM)

Question: With `Cc1cc(Nc2ccc(F)cc2)nc(-n2ccc(C(C)O)n2)n1` (stereo not shown) [Compound 140, 1-(1-(4-((4-fluorophenyl)amino)-6-methylpyrimidin-2-yl)-1H-pyrazol-3-yl)ethan-1-ol] as the compound, how does the “SC100 uM” value read?
Answer: + (+ means >1 uM)

Question: With `Cc1cc(C)n(-c2nc(Nc3ccc(F)c(F)c3)cc(NC3C4CN(Cc5ccccc5)CC43)n2)n1` (stereo not shown) [Compound 134, N4-(3-benzyl-3-azabicyclo[3.1.0]hexan-6-yl)-N6-(3,4-difluorophenyl)-2-(3,5-dimethyl-1H-pyrazol-1-yl)pyrimidine-4,6-diamine] as the compound, how does the “SC100 uM” value read?
Answer: ++ (++ means 200 nM-1000 nM)

Question: Which “SC100 uM” value does the source give for `Cc1cc(Nc2ccc(F)cc2)nc(-n2ccc(CO)n2)n1` [Compound 137, (1-(4-((4-fluorophenyl)amino)-6-methylpyrimidin-2-yl)-1H-pyrazol-3-yl)methanol] here?
Answer: + (+ means >1 uM)

Question: For `CC(=O)N1CCN(c2cc(Nc3ccc(F)cc3F)nc(-n3nc(C)cc3C)n2)CC1` [Compound 105, 1-(4-(6-((2,4-difluorophenyl)amino)-2-(3,5-dimethyl-1H-pyrazol-1-yl)pyrimidin-4-yl)piperazin-1-yl)ethan-1-one], which “SC100 uM” value is on record?
Answer: ++ (++ means 200 nM-1000 nM)

Question: How did the “SC100 uM” value turn out when `CC(=O)N1CCN(c2cc(Nc3ccc(F)c(F)c3)nc(-n3nc(C)cc3C)n2)CC1` [Compound 100, 1-(4-(6-((3,4-difluorophenyl)amino)-2-(3,5-dimethyl-1H-pyrazol-1-yl)pyrimidin-4-yl)piperazin-1-yl)ethan-1-one] was run?
Answer: +++ (+++ means <200 nM)

Question: For `CC(=O)N1CCN(c2cc(-n3nc(C)cc3C)nc(Nc3ccc(F)cc3)n2)CC1` [Compound 103, 1-(4-(6-(3,5-dimethyl-1H-pyrazol-1-yl)-2-((4-fluorophenyl)amino)pyrimidin-4-yl)piperazin-1-yl)ethan-1-one], which “SC100 uM” value is on record?
Answer: +++ (+++ means <200 nM)

Question: `CC(=O)NCc1cc(Nc2ccc(F)cc2)nc(-n2cc(C)c(C(F)F)n2)c1` [Compound 168, N-((2-(3-(difluoromethyl)-4-methyl-1H-pyrazol-1-yl)-6-((4-fluorophenyl)amino)pyridin-4-yl)methyl)acetamide] was tested. Which “SC100 uM” value did it give?
Answer: +++ (+++ means <200 nM)

Question: With `Cc1cc(C)n(-c2cc3ccn(C)c3c(Nc3ccc(Cl)cc3)n2)n1` [Compound 144, N-(4-chlorophenyl)-5-(3,5-dimethyl-1H-pyrazol-1-yl)-1-methyl-1H-pyrrolo [2,3-c]pyridin-7-amine] as the compound, how does the “SC100 uM” value read?
Answer: + (+ means >1 uM)

Question: `CC(C)(O)c1ccn(-c2nc(Nc3ccc(F)cc3)cc(N3CC4(COC4)C3)n2)n1` [Compound 155, 2-(1-(4-((4-fluorophenyl)amino)-6-(2-oxa-6-azaspiro[3.3]heptan-6-yl)pyrimidin-2-yl)-1H-pyrazol-3-yl)propan-2-ol] was tested. Which “SC100 uM” value did it give?
Answer: + (+ means >1 uM)

Question: Which “SC100 uM” value does the source give for `Cc1cc(C)n(-c2nc(Nc3ccc(F)c(F)c3)cc(N3CC4(COC4)C3)n2)n1` [Compound 111, N-(3,4-difluorophenyl)-2-(3,5-dimethyl-1H-pyrazol-1-yl)-6-(2-oxa-6-azaspiro[3.3]heptan-6-yl)pyrimidin-4-amine] here?
Answer: +++ (+++ means <200 nM)

Question: Which “SC100 uM” value does the source give for `Cc1cc(C)n(-c2nc(Nc3ccc(F)cc3F)cc(N3CCNC(C(N)=O)C3)n2)n1` (stereo not shown) [Compound 115, 4-(6-((2,4-difluorophenyl)amino)-2-(3,5-dimethyl-1H-pyrazol-1-yl)pyrimidin-4-yl)piperazine-2-carboxamide] here?
Answer: ++ (++ means 200 nM-1000 nM)

Question: `Cc1cc(C)n(-c2nc(Nc3ccc(Cl)cc3)cc(N[C@@H](C)C(N)=O)n2)n1` (single isomer, unassigned) [Compound 124, (−)-2-((6-((4-chlorophenyl)amino)-2-(3,5-dimethyl-1H-pyrazol-1-yl)pyrimidin-4-yl)amino)propanamide] was tested. Which “SC100 uM” value did it give?
Answer: ++ (++ means 200 nM-1000 nM)

Question: For `Cc1cn(-c2nc(Nc3ccc(F)cc3)cc(OC3COC3)n2)nc1CF` [Compound 163, 2-(3-(fluoromethyl)-4-methyl-1H-pyrazol-1-yl)-N-(4-fluorophenyl)-6-(oxetan-3-yloxy)pyrimidin-4-amine], which “SC100 uM” value is on record?
Answer: ++ (++ means 200 nM-1000 nM)

Question: `CC(O)c1ccn(-c2nc(Nc3ccc(F)cc3)cc(N3CC4(COC4)C3)n2)n1` (stereo not shown) [Compound 153, 1-(1-(4-((4-fluorophenyl)amino)-6-(2-oxa-6-azaspiro[3.3]heptan-6-yl)pyrimidin-2-yl)-1H-pyrazol-3-yl)ethan-1-ol] was tested. Which “SC100 uM” value did it give?
Answer: + (+ means >1 uM)

Same assay, conditions: Stimulating Concentration required for increasing the baseline current by 100%; HEK293 cells expressing hSK2; Table 4

Question: For `Cc1cc(C)n(-c2cc(C(C)O)cc(Nc3ccc(F)cc3)n2)n1` (stereo not shown) [IN10964-084-P1, 1-(2-(3,5-dimethyl-1H-pyrazol-1-yl)-6-((4-fluorophenyl)amino)pyridin-4-yl)ethan-1-ol], which “SC100 (μM)” value is on record?
Answer: + (+ means >1 uM)

Question: How did the “SC100 (μM)” value turn out when `CC1(O)CN(c2cc(Nc3ccc(F)cc3)nc(-n3ccc(CF)n3)c2)C1` [NSSy5632] was run?
Answer: +++ (+++ means <200 nM)

Question: How did the “SC100 (μM)” value turn out when `Cc1cc(C)n(-c2nc(Nc3cccc(C(F)(F)F)c3)cc(C(C)O)n2)n1` (stereo not shown) [IN10973-007-P1] was run?
Answer: +++ (+++ means <200 nM)

Question: For `COc1cc(Nc2ccc(F)cc2)nc(-c2nc(C)cs2)n1` [IN11059-059-P1], which “SC100 (μM)” value is on record?
Answer: ++ (++ means 200 nM-1000 nM)

Question: For `Cc1csc(-c2nc(Nc3cccc(C(F)(F)F)c3)cc(C(C)O)n2)n1` (stereo not shown) [IN10880-092-P1], which “SC100 (μM)” value is on record?
Answer: ++ (++ means 200 nM-1000 nM)

Question: Which “SC100 (μM)” value does the source give for `Cc1ccn(-c2nc(Nc3ccc(F)cc3)cc(C(C)O)n2)n1` (stereo not shown) [IN10882-054-P1] here?
Answer: ++ (++ means 200 nM-1000 nM)

Question: With `CN(C)C1CN(c2cc(Nc3ccc(F)cc3)nc(-n3ccc(CF)n3)c2)C1` [NSSy5713] as the compound, how does the “SC100 (μM)” value read?
Answer: + (+ means >1 uM)

Question: How did the “SC100 (μM)” value turn out when `Cc1cc(C)n(-c2nc(Nc3ccc(F)cc3)cc(C(C)O)n2)n1` (stereo not shown) [IN10973-006-P1] was run?
Answer: ++ (++ means 200 nM-1000 nM)

Question: For `Cc1ccn(-c2cc(CO)cc(Nc3ccc(F)cc3F)n2)n1` [NSSy6773, (2-((2,4-difluorophenyl)amino)-6-(3-methyl-1H-pyrazol-1-yl)pyridin-4-yl) methanol], which “SC100 (μM)” value is on record?
Answer: ++ (++ means 200 nM-1000 nM)
